Active and inactive are the calls of the source.
Tests used:
Rattus norvegicus [1] = test: Antihyperglycemic activity in po dosed STZ-diabetic rat assessed as lowering of fasting plasma glucose level after 45 days by colorimetry; format: functional
Rattus norvegicus [2] = test: Antihyperglycemic activity in STZ-diabetic rat assessed as improvement in beta cell granulation at 50 mg/kg, po after 45 days by histopathological study; format: functional, organism-based; set-up: dose 50 mg/kg
Rattus norvegicus [3] = test: Antihyperglycemic activity in STZ-diabetic rat assessed as expansion of islet cells at 25 mg/kg, po after 45 days by histopathological study; format: functional, organism-based; set-up: dose 25 mg/kg
Rattus norvegicus [4] = test: Antihyperglycemic activity in STZ-diabetic rat assessed as potentiation of insulin secretion from existing beta cells at 50 mg/kg, po after 45 days; format: functional, organism-based; set-up: dose 50 mg/kg
Rattus norvegicus [5] = test: Antihyperglycemic activity in STZ-diabetic rat assessed as hyperplastic islet cells at 50 mg/kg, po after 45 days by histopathological study; format: functional, organism-based; set-up: dose 50 mg/kg
Rattus norvegicus [6] = test: Antihyperglycemic activity in STZ-diabetic rat assessed as expansion of islet cells at 50 mg/kg, po after 45 days by histopathological study; format: functional, organism-based; set-up: dose 50 mg/kg
Rattus norvegicus [7] = test: Antihyperglycemic activity in STZ-diabetic rat assessed as expansion of islet cells at 12.5 mg/kg, po after 45 days by histopathological study; format: functional, organism-based; set-up: dose 12.5 mg/kg
Rattus norvegicus [8] = test: Antihyperglycemic activity in STZ-diabetic rat assessed as dilated islet cells at 12.5 mg/kg, po after 45 days by histopathological study; format: functional, organism-based; set-up: dose 12.5 mg/kg
Rattus norvegicus [9] = test: Antihyperglycemic activity in po dosed STZ-diabetic rat assessed as insulin containing beta-cells by immunohistochemical study; format: functional, organism-based
Rattus norvegicus [10] = test: Antihyperglycemic activity in STZ-diabetic rat assessed as dilated islet cells at 25 mg/kg, po after 45 days by histopathological study; format: functional, organism-based; set-up: dose 25 mg/kg
Rattus norvegicus [11] = test: Antihyperglycemic activity in STZ-diabetic rat assessed as hyperplastic islet cells at 600 mg/kg, po after 45 days by histopathological study; format: functional, organism-based; set-up: dose 600 mg/kg
Rattus norvegicus [12] = test: Antihyperglycemic activity in STZ-diabetic rat assessed as dilated islet cells at 600 ug/kg, po after 45 days by histopathological study; format: functional, organism-based

Measured: Activity

CCCC[C@@H](C)[C@H]1CC[C@H]2[C@@H]3CC=C4C[C@@H](O)CC[C@]4(C)[C@H]3CC[C@]12C [NYMPHAYOL]
78.05%: Rattus norvegicus [1]
active: Rattus norvegicus [2] | Rattus norvegicus [4] | Rattus norvegicus [7] | Rattus norvegicus [8] | Rattus norvegicus [9]
inactive: all other assays above

Reference: ChEMBL document CHEMBL1153951, “Partial regeneration of beta-cells in the islets of Langerhans by Nymphayol a sterol isolated from Nymphaea stellata (Willd.) flowers” (2009)
